SMILES strings stand for the structures. pIC50: −log10 of the molar value.

The record followed here is patent publication US20250026743A1, “HETEROARYL-LINKED ANALOGS AS MGLU5 NEGATIVE ALLOSTERIC MODULATORS AND METHODS OF MAKING AND USING THE SAME” (Vanderbilt University, priority 2021, published 2025).

The target in this assay is T1, hmGlu5 (Homo sapiens, UniProt P41594).
T1 construct: expressed in transfected cells; host or cells: HEK 293A
Put plainly: mGlu5 Ca2+ flux assay in HEK 293A cells (negative allosteric modulation of glutamate EC80 response). Format: cell-based. Particulars: for remaining activity at 30 µM: HEK293-A, % Glu max at 30 μM, read-out: hmGlu5 NAM Emin (%); for pIC50: HEK 293A cells, Ca2+ flux, glutamate EC80, >10,000 = decrease without plateau, read-out: hmGlu5 NAM IC50. How it is done:
HEK 293A cells stably expressing either rat or human mGlu5 were plated in black-walled, clear-bottomed, poly-D-lysine coated 384-well plates in 20 μL of assay medium (DMEM containing 10% dialyzed FBS, 20 mM HEPES, 100 units/mL penicillin/streptomycin plus 250 ng/mL Fungizone, and 1 mM sodium pyruvate) at a density of 20K cells/well. The cells were grown overnight at 37° C. in the presence of 5% CO2. The next day, medium was removed and the cells incubated with 20 μL of 2.3 μM Fluo-4, AM prepared as a 2.3 mM stock in DMSO and mixed in a 1:1 ratio with 10% (w/v) pluronic acid F-127 and diluted in assay buffer (Hank's balanced salt solution, 20 mM HEPES, and 2.5 mM probenecid) for 45 minutes at 37° C. Dye was removed, 20 μL of assay buffer was added, and the plate was incubated for 5 minutes at room temperature.
Ca^2+ flux was measured using the Functional Drug Screening System (FDSS7000, Hamamatsu, Japan). After establishment of a fluorescence baseline for about 3 seconds, the compounds of the present invention were added to the cells, and the response in cells was measured. 2.3 minutes later an EC20 concentration of the mGlu5 receptor agonist glutamate was added to the cells, and the response of the cells was measured for 1.9 minutes; an EC80 concentration of agonist was added and readings taken for an additional 1.7 minutes. All test compounds were dissolved and diluted to a concentration of 10 mM in 100% DMSO. Compounds were then serially diluted 1:3 in DMSO into 10 point concentration response curves, transferred to daughter plates, and further diluted into assay buffer to a 2× stock. Calcium fluorescence measures were recorded as fold over basal fluorescence; raw data was then normalized to the maximal response to glutamate. Antagonism of the agonist response of the mGlu5 receptor in the present invention was observed as a decrease in response to nearly maximal concentrations of glutamate in the presence of compound compared to the response to glutamate in the absence of compound.
The raw data file containing all time points was used as the data source in the analysis template. This was saved by the FDSS as a tab-delimited text file. Data were normalized using a static ratio function (F/F0) for each measurement of the total 360 values per well divided by each well's initial value. Data were then reduced to peak amplitudes (Max−Initial Min) using a time range that starts approximately 3 seconds prior to the glutamate EC20/EC80 addition and continues for approximately 90-120 seconds. This is sufficient time to capture the peak amplitude of the cellular calcium response. Individual amplitudes were expressed as % EMax by multiplying each amplitude by 100 and then dividing the product by the mean of the amplitudes derived from the glutamate ECMax-treated wells. IC50 values for test compounds were generated by fitting the normalized values versus the log of the test compound concentration (in mol/L) using a 4 parameter logistic equation where none of the parameters were fixed. Each of the three values collected at each concentration of test compound were weighted evenly.
For NAMs with a CRC that plateaus above 10% Glu Max, the IC50 values are reported, the compound is designated a “partial NAM” and the % Glu Max is reported. […] Compounds without measurable activity are designated as “>30,000 nM” since the top concentration of compound tested in the assay is 30 μM. […]
Background: Calcium flux is commonly read through the fluorescence of an indicator in the cells.

T1 sequence (P41594 21-1212): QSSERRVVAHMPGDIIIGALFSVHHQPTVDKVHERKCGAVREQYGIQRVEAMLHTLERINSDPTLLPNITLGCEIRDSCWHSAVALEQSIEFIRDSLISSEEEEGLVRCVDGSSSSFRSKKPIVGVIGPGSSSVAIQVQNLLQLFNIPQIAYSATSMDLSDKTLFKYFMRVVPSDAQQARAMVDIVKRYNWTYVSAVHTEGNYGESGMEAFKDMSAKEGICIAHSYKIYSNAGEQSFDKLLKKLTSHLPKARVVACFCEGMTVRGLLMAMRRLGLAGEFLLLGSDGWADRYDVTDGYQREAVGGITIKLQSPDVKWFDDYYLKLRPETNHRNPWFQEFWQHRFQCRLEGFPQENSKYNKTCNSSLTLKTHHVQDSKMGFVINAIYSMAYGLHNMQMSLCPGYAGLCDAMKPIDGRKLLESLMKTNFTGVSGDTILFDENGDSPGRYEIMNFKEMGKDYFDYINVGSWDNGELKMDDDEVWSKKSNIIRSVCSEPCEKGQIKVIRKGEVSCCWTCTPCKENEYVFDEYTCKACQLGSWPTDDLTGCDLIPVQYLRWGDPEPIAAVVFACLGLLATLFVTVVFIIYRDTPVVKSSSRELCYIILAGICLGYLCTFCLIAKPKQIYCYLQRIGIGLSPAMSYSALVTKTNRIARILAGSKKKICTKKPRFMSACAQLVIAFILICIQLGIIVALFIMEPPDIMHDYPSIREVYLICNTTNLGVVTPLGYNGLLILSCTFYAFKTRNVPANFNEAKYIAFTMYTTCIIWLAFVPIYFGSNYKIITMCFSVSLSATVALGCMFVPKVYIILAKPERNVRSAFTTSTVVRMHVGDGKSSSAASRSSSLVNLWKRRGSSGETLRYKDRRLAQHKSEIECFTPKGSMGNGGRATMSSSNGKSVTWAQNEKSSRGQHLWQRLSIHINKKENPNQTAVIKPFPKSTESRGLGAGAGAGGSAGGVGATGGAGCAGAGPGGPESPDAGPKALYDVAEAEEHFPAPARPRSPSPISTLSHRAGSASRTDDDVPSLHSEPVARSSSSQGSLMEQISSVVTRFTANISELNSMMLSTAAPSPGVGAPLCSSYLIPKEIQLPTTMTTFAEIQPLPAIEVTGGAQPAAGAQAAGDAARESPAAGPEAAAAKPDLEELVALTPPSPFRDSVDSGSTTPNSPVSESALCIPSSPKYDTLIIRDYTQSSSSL

As to `Cc1ccncc1-c1cc(-c2noc(Cc3ccnn3C)n2)nc(C)c1F` [Compound 56, 3-(5′-fluoro-4,6′-dimethyl-[3,4′-bipyridin]-2′-yl)-5-((1-methyl-1H-pyrazol-5-yl)methyl)-1,2,4-oxadiazole], the remaining activity at 30 µM came to 50% and the pIC50 (commonly −log10 of the IC50, conventionally taken in molar units) was under 5.00.

For `COc1cncc(-c2cc(-c3noc(-c4ccc(F)cn4)n3)nc(C)c2F)c1` [Compound 30, 3-(5′-fluoro-5-methoxy-6′-methyl-[3,4′-bipyridin]-2′-yl)-5-(5-fluoropyridin-2-yl)-1,2,4-oxadiazole], the remaining activity at 30 µM is 3% and the pIC50 was 6.31.

`COc1ccncc1-c1cc(-c2nnc(-c3ccc(F)cn3)o2)nc(C)c1F` [Compound 73, 2-(5′-fluoro-4-methoxy-6′-methyl-[3,4′-bipyridin]-2′-yl)-5-(5-fluoropyridin-2-yl)-1,3,4-oxadiazole]: the remaining activity at 30 µM was 2% and the pIC50 is 6.53.

For `Cc1csc(-c2noc(-c3cc(-c4cncc(F)c4)c(F)c(C)n3)n2)n1` [Compound 104, 5-(5,5′-difluoro-6′-methyl-[3,4′-bipyridin]-2′-yl)-3-(4-methylthiazol-2-yl)-1,2,4-oxadiazole], the remaining activity at 30 µM stood at 1% and the pIC50 was 6.91.

As to `Cc1ccncc1-c1cc(-c2noc(-c3ncccc3F)n2)ncc1F` [Compound 2, 3-(5′-fluoro-4-methyl-[3,4′-bipyridin]-2′-yl)-5-(3-fluoropyridin-2-yl)-1,2,4-oxadiazole], the remaining activity at 30 µM is 25% and the pIC50 is 5.58.

Take `CCn1cc(-c2cc(-c3nnc(-c4ccc(F)cn4)o3)nc(C)c2F)cn1` [Compound 75, 2-(4-(1-ethyl-1H-pyrazol-4-yl)-5-fluoro-6-methylpyridin-2-yl)-5-(5-fluoropyridin-2-yl)-1,3,4-oxadiazole]: the remaining activity at 30 µM came out at 2% and the pIC50 is 6.23.

With `Cc1cncc(-c2nc(-c3cc(-c4cnccc4C)c(F)c(C)n3)no2)c1` [Compound 87, 3-(5′-fluoro-4,6′-dimethyl-[3,4′-bipyridin]-2′-yl)-5-(5-methylpyridin-3-yl)-1,2,4-oxadiazole], the remaining activity at 30 µM is 13% and the pIC50 was 5.37.

`Cc1cc(F)nc(-c2cc(-c3noc(-c4ccc(F)cn4)n3)nc(C)c2F)c1` [Compound 66, 3-(5′,6-difluoro-4,6′-dimethyl-[2,4′-bipyridin]-2′-yl)-5-(5-fluoropyridin-2-yl)-1,2,4-oxadiazole]: the remaining activity at 30 µM stood at 9% and the negative-log IC50 (pIC50) is 5.72.

In the case of `Cc1nc(-c2nnc(-c3ccc(F)cn3)o2)cc(-c2cncc(F)c2)c1OC(C)C` [Compound 45, 2-(5-fluoro-5′-isopropoxy-6′-methyl-[3,4′-bipyridin]-2′-yl)-5-(5-fluoropyridin-2-yl)-1,3,4-oxadiazole], the remaining activity at 30 µM stood at 2% and the negative-log IC50 (pIC50) was 6.02.

Regarding `Cc1csc(-c2nc(-c3cc(-c4cncc(F)c4)c(F)c(C)n3)no2)n1` [Compound 16, 3-(5,5′-difluoro-6′-methyl-[3,4′-bipyridin]-2′-yl)-5-(4-methylthiazol-2-yl)-1,2,4-oxadiazole], the remaining activity at 30 µM is 9% and the pIC50 was 6.21.

With `Cc1nc(-c2noc(-c3ccc(F)cn3)n2)cc(-c2cc(F)cc(F)c2)c1F` [Compound 67, 3-(4-(3,5-difluorophenyl)-5-fluoro-6-methylpyridin-2-yl)-5-(5-fluoropyridin-2-yl)-1,2,4-oxadiazole], the remaining activity at 30 µM worked out at 3% and the pIC50 was 6.79.

In the case of `COc1cncc(-c2cc(-c3nnc(-c4ccc(F)cn4)o3)nc(C)c2F)c1` [Compound 107, 2-(5′-fluoro-5-methoxy-6′-methyl-[3,4′-bipyridin]-2′-yl)-5-(5-fluoropyridin-2-yl)-1,3,4-oxadiazole], the remaining activity at 30 µM turned out to be 2% and the pIC50 was 6.47.

With `Cc1nc(-c2noc(-c3cccnc3)n2)cc(-c2cncc(F)c2)c1F` [Compound 50, 3-(5,5′-difluoro-6′-methyl-[3,4′-bipyridin]-2′-yl)-5-(pyridin-3-yl)-1,2,4-oxadiazole], the remaining activity at 30 µM came to 34% and the pIC50 was 5.81.

With `Cc1ccncc1-c1cc(-c2noc(-c3cccc(Cl)c3)n2)nc(C)c1F` [Compound 23, 5-(3-chlorophenyl)-3-(5′-fluoro-4,6′-dimethyl-[3,4′-bipyridin]-2′-yl)-1,2,4-oxadiazole], the remaining activity at 30 µM turned out to be 2% and the negative logarithm of the IC50 (pIC50) was 6.93.

`Cc1ccncc1-c1cc(-c2n[nH]c(-c3ccc(F)cn3)n2)nc(C)c1F` [Compound 97, 3′-fluoro-6′-(5-(5-fluoropyridin-2-yl)-1H-1,2,4-triazol-3-yl)-2′,4-dimethyl-3,4′-bipyridine]: the remaining activity at 30 µM came out at 2% and the pIC50 was 6.74.

Turning to `Cc1cc(-c2cncc(F)c2)cc(-c2nc(-c3ccc(F)cn3)no2)n1` [Compound 90, 5-(5-fluoro-6′-methyl-[3,4′-bipyridin]-2′-yl)-3-(5-fluoropyridin-2-yl)-1,2,4-oxadiazole], the remaining activity at 30 µM is 2% and the pIC50 was 6.91.

`Cc1cccc(-c2nc(-c3cc(-c4cnccc4C)c(F)c(C)n3)no2)c1` [Compound 28, 3-(5′-fluoro-4,6′-dimethyl-[3,4′-bipyridin]-2′-yl)-5-(m-tolyl)-1,2,4-oxadiazole]: the remaining activity at 30 µM was found to be 2% and the pIC50 is 7.16.

As to `Fc1ccc(-c2nc(-c3cc(-c4cncc(F)c4)cc(C4CCC4)n3)no2)nc1` [Compound 39, 3-(6′-cyclobutyl-5-fluoro-[3,4′-bipyridin]-2′-yl)-5-(5-fluoropyridin-2-yl)-1,2,4-oxadiazole], the remaining activity at 30 µM amounted to 58% and the pIC50 is 5.72.

Consider `Cc1nc(-c2nnc(-c3ccc(F)cn3)o2)cc(-c2cnccc2Cl)c1F` [Compound 77, 2-(4-chloro-5′-fluoro-6′-methyl-[3,4′-bipyridin]-2′-yl)-5-(5-fluoropyridin-2-yl)-1,3,4-oxadiazole], for which the remaining activity at 30 µM turned out to be 3% and the negative-log IC50 (pIC50) is 6.86.

With `Cc1nc(-c2noc(-c3ccc(F)cn3)n2)cc(-c2cnn(C(F)F)c2)c1F` [Compound 7, 3-(4-(1-(difluoromethyl)-1H-pyrazol-4-yl)-5-fluoro-6-methylpyridin-2-yl)-5-(5-fluoropyridin-2-yl)-1,2,4-oxadiazole], the remaining activity at 30 µM is 2% and the negative-log IC50 (pIC50) is 6.80.

`COc1c(-c2cncc(F)c2)cc(-c2n[nH]c(-c3cccc(F)c3)n2)nc1C` [Compound 101, 5-fluoro-6′-(5-(3-fluorophenyl)-1H-1,2,4-triazol-3-yl)-3′-methoxy-2′-methyl-3,4′-bipyridine]: the remaining activity at 30 µM was found to be 11% and the pIC50 was 6.94.

In the case of `Cc1ccncc1-c1cc(-c2noc(-c3ccncc3)n2)nc(C)c1F` [Compound 93, 3-(5′-fluoro-4,6′-dimethyl-[3,4′-bipyridin]-2′-yl)-5-(pyridin-4-yl)-1,2,4-oxadiazole], the remaining activity at 30 µM stood at 2% and the pIC50 is 6.66.
